According to patent US5547975A, “Benzopyranopyrazolyl derivatives for the treatment of inflammation” (priority 1994, dated 1996):

Assays:
[1] = target: T1, Human COX II (Homo sapiens, UniProt P35354); assay: Evaluation of COX II activity in vitro (recombinant enzyme, PGE2 ELISA); assay type: biochemical; conditions: 10 μM arachidonic acid, pre-incubation 10-20 minutes, pH 8.0; read-out: Human COX II ID50
T1 construct: made in house; host or cells: SF9 insect cells, recombinant baculovirus (transfer vector pVL1393)
T1 sequence (P35354 18-604): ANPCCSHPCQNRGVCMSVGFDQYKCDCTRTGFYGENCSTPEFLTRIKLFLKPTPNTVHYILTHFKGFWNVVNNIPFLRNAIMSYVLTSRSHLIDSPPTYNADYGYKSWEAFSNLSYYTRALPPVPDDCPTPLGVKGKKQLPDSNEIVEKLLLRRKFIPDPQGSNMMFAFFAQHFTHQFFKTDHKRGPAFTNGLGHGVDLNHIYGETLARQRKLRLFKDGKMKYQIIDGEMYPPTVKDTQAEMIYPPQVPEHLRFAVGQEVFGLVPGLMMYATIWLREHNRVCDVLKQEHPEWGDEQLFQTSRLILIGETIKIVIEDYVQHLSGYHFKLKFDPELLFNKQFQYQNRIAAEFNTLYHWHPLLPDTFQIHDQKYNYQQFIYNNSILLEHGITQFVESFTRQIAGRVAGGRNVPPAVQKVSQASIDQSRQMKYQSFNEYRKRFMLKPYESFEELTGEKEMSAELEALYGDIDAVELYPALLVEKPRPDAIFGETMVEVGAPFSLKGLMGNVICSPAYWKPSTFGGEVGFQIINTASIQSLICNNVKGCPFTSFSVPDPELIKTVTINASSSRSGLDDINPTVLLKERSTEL
Experimental: (§1) Evaluation of COX I and COX II activity in vitro
The COX II inhibition activity of the compounds of this invention illustrated in the Examples was determined by the following methods.
(§2) a. Preparation of recombinant COX baculoviruses
(§3) A 2.0 kb fragment containing the coding region of either human or murine COX-I or human or murine COX-II was cloned into a BamH1 site of the baculovirus transfer vector pVL1393 (Invitrogen) to generate the baculovirus transfer vectors for COX-I and COX-II in a manner similar to the method of D. R. O'Reilly et al (Baculovirus Expression Vectors: A Laboratory Manual (1992)). Recombinant baculoviruses were isolated by transfecting 4 μg of baculovirus transfer vector DNA into SF9 insect cells ([…]) along with 200 ng of linearized baculovirus plasmid DNA by the calcium phosphate method. See M. D. Summers and G. E. Smith, A Manual of Methods for Baculovirus Vectors and Insect Cell Culture Procedures, Texas Agric. Exp. Station Bull. 1555 (1987). Recombinant viruses were purified by three rounds of plaque purification and high titer (10E7-10E8 pfu/ml) stocks of virus were prepared. For large scale production, SF9 insect cells were infected in 10 liter fermentors (0.5×10^6 /ml) with the recombinant baculovirus stock such that the multiplicity of infection was 0.1. After 72 hours the cells were centrifuged and the cell pellet homogenized in Tris/Sucrose (50 mM: 25%, pH 8.0) containing 1% 3-[(3-cholamidopropyl)dimethylammonio]-1-propanesulfonate (CHAPS). The homogenate was centrifuged at 10,000'G for 30 minutes, and the resultant supernatant was stored at -80° C. before being assayed for COX activity.
(§4) b. Assay for COX I and COX II activity:
(§5) COX activity was assayed as PGE2 formed/μg protein/time using an ELISA to detect the prostaglandin released. CHAPS-solubilized insect cell membranes containing the appropriate COX enzyme were incubated in a potassium phosphate buffer (50 mM, pH 8.0) containing epinephrine, phenol, and heme with the addition of arachidonic acid (10 μM). Compounds were pre-incubated with the enzyme for 10-20 minutes prior to the addition of arachidonic acid. Any reaction between the arachidonic acid and the enzyme was stopped after ten minutes at 37° C./room temperature by transferring 40 μl of reaction mix into 160 μl ELISA buffer and 25 μM indomethacin. The PGE2 formed was measured by standard ELISA technology (Cayman Chemical).

[2] = target: T2, Human COX I (Homo sapiens, UniProt P23219); assay: Evaluation of COX I activity in vitro (recombinant enzyme, PGE2 ELISA); assay type: biochemical; conditions: 10 μM arachidonic acid, pre-incubation 10-20 minutes, pH 8.0; read-out: Human COX I ID50
T2 construct: made in house; host or cells: SF9 insect cells, recombinant baculovirus (transfer vector pVL1393)
T2 sequence (P23219 24-599): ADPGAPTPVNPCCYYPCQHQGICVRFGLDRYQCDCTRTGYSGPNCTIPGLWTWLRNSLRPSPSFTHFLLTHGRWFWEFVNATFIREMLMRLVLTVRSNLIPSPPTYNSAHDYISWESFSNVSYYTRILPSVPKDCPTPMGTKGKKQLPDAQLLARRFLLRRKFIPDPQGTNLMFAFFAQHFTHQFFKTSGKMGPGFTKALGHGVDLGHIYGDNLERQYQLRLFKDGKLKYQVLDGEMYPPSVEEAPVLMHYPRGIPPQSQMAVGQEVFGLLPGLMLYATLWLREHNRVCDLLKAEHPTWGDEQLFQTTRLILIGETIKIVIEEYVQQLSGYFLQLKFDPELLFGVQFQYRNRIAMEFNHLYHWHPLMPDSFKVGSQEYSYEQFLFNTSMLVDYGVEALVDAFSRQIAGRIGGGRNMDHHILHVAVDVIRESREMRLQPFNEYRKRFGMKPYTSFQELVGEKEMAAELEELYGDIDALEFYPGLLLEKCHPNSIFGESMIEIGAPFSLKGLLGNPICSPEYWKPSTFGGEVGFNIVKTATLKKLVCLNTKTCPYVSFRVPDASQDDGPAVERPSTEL
From the text: as §1, §2, §3, §4, §5

Row | SMILES | IC50 [1] [nM] | IC50 [2] [nM]
1 | Cc1ccc2c(c1)SCc1c(C(F)(F)F)nn(-c3ccc(S(N)(=O)=O)cc3)c1-2 [Example 14, 4-[1,4-Dihydro-7-methyl-3-(trifluoromethyl)-[1]benzothiopyrano[4,3-c]pyrazol-1-yl]benzenesulfonamide] | 200 | 4600
2 | COc1ccc2c(c1F)CSCc1c(C(F)(F)F)nn(-c3ccc(S(N)(=O)=O)cc3)c1-2 [Example 30, 4-[4,6-dihydro-7-fluoro-8-methoxy-3-(trifluoromethyl)-[2]benzothiepino[5,4-c]pyrazol-1-yl]benzenesulfonamide] | 2200 | 73400
3 | NS(=O)(=O)c1ccc(-n2nc(C(F)(F)F)c3c2-c2ccccc2OC3)cc1 [Example 3, 4-[1,4-Dihydro-3-(trifluoromethyl)-[1]benzopyrano[4,3-c]pyrazol-1-yl]benzenesulfonamide] | 1300 | –
4 | COc1cc2c(cc1OC)-c1c(c(C(F)(F)F)nn1-c1ccc(S(N)(=O)=O)cc1)CS2 [Example 12, 4-[1,4-Dihydro-7,8-dimethoxy-3-(trifluoromethyl)-[1]benzothiopyrano[4,3-c]pyrazol-1-yl]benzenesulfonamide] | 95000 | > 100000
5 | NC(=O)c1nn(-c2ccc(S(N)(=O)=O)cc2)c2c1SCc1cc(F)ccc1-2 [Example 27, [1-(4-aminosulfonylphenyl)-1,5-dihydro-7-fluoro-[2]benzothiopyrano[4,3-c]pyrazol-3-yl]carboxamide] | 4700 | > 100000
6 | COc1ccc2c(c1)CSc1c(C(F)(F)F)nn(-c3ccc(S(N)(=O)=O)cc3)c1-2 [Example 20, 4-[1,5-Dihydro-7-methoxy-3-(trifluoromethyl)-[2]benzothiopyrano[4,3-c]pyrazol-1-yl]benzenesulfonamide] | < 100 | < 100
7 | NS(=O)(=O)c1ccc(-n2nc(C(F)(F)F)c3c2-c2cc(F)ccc2OC3)cc1 [Example 5, 4-[1,4-Dihydro-8-fluoro-3-(trifluoromethyl)-[1]benzopyrano[4,3-c]pyrazol-1-yl]benzenesulfonamide] | 4800 | 24400
8 | Cc1ccc2c(c1)CSc1c(C(F)(F)F)nn(-c3ccc(S(C)(=O)=O)cc3)c1-2 [Example 18, 1,5-Dihydro-1-[4-(methylsulfonyl)phenyl]-7-methyl-3-(trifluoromethyl)-[2]benzothiopyrano[4,3-c]pyrazole] | < 100 | 3700
9 | N#Cc1nn(-c2ccc(S(N)(=O)=O)cc2)c2c1CSc1ccccc1-2 [Example 22, 1-[4-(Aminosulfonyl)phenyl]-1,4-dihydro-[1]benzothiopyrano[4,3-c]pyrazol-3-carbonitrile] | 3500 | 51000
10 | NS(=O)(=O)c1ccc(-n2nc(C(F)(F)F)c3c2-c2ccc(Cl)cc2SC3)cc1 [Example 15, 4-[7-Chloro-1,4-dihydro-3-(trifluoromethyl)-[1]benzothiopyrano[4,3-c]pyrazol-1-yl]benzenesulfonamide] | < 100 | 300
11 | COc1ccc2c(c1F)C[S+]([O-])c1c(C(F)(F)F)nn(-c3ccc(S(N)(=O)=O)cc3)c1-2 (centres unmarked) [Example 28, 4-[1,5-dihydro-6-fluoro-7-methoxy-3-(trifluoromethyl)-[2]benzothiopyrano-S-oxide[4,3-c]pyrazol-1-yl]benzenesulfonamide] | 1200 | > 100000
12 | Cc1ccc2c(c1)CSc1c(C(F)(F)F)nn(-c3ccc(S(N)(=O)=O)cc3)c1-2 [Example 17, 4-[1,5-Dihydro-7-methyl-3-(trifluoromethyl)-[2]benzothiopyrano[4,3-c]pyrazol-1-yl]benzenesulfonamide] | < 100 | 800
13 | COC(=O)c1nn(-c2ccc(S(N)(=O)=O)cc2)c2c1SCc1cc(F)ccc1-2 [Example 29, methyl[1-(4-aminosulfonylphenyl)-1,5-dihydro-7-fluoro-[2]benzothiopyrano[4,3-c]pyrazol-3-yl]carboxylate] | 800 | 13200
14 | NS(=O)(=O)c1ccc(-n2nc(C(F)(F)F)c3c2-c2ccc(F)cc2CS3)cc1 [Example 26, 4-[1,5-dihydro-7-fluoro-3-(trifluoromethyl)-[2]benzothiopyrano[4,3-c]pyrazol-1-yl]benzenesulfonamide] | < 100 | 300
15 | NS(=O)(=O)c1ccc(-n2nc(C(F)(F)F)c3c2-c2cc(Cl)sc2C[S+]3[O-])cc1 (centres unmarked) [Example 24, 4-[7-chloro-1,5-dihydro-3-trifluoromethyl-thieno[3',2':4,5]thiopyrano-s-oxide[3,2-c]pyrazol-1-yl]benzenesulfonamide] | 45600 | 91100
16 | NS(=O)(=O)c1ccc(-n2nc(C(F)(F)F)c3c2-c2ccc(F)cc2SC3)cc1 [Example 10, 4-[1,4-Dihydro-7-fluoro-3-(trifluoromethyl)-[1]benzothiopyrano[4,3-c]pyrazol-1-yl]benzenesulfonamide] | < 100 | 6200
17 | NS(=O)(=O)c1ccc(-n2nc(C(F)(F)F)c3c2-c2ccc(Cl)cc2CS3)cc1 [Example 19, 4-[7-Chloro-1,5-dihydro-3-(trifluoromethyl)-[2]benzothiopyrano[4,3-c]pyrazol-1-yl]benzenesulfonamide] | < 100 | 300
18 | COc1ccc2c(c1F)CSc1c(C(F)(F)F)nn(-c3ccc(S(N)(=O)=O)cc3)c1-2 [Example 1, 4-[1,5-Dihydro-6-fluoro-7-methoxy-3-(trifluoromethyl)-[2]benzothiopyrano[4,3-c]pyrazol-1-yl]benzenesulfonamide] | < 100 | 2700
19 | COc1ccc2c(c1F)CSc1c(C(F)F)nn(-c3ccc(S(N)(=O)=O)cc3)c1-2 [Example 25, 4-[3-(difluoromethyl)-1,5-dihydro-6-fluoro-7-methoxy-[2]benzothiopyrano[4,3-c]pyrazol-1-yl]benzenesulfonamide] | < 100 | > 100000
20 | COC(=O)c1nn(-c2ccc(S(N)(=O)=O)cc2)c2c1CSc1ccccc1-2 [Example 8, Methyl[1-[(4-aminosulfonyl)phenyl]-1,4-dihydro-[1]benzothiopyrano[4,3-c]pyrazol-3-yl]carboxylate] | 500 | –
21 | COc1ccc2c(c1)SCc1c(C(F)(F)F)nn(-c3ccc(S(N)(=O)=O)cc3)c1-2 [Example 13, 4-[1,4-Dihydro-7-methoxy-3-(trifluoromethyl)-[1]benzothiopyrano[4,3-c]pyrazol-1-yl]benzenesulfonamide] | < 100 | < 100
22 | COC(=O)c1nn(-c2ccc(S(N)(=O)=O)cc2)c2c1COc1ccccc1-2 [Example 4, Methyl[1-[4-(aminosulfonyl)phenyl]-1,4-dihydro-[1]benzopyrano[4,3-c]pyrazol-3-yl]carboxylate] | 500 | –
23 | CC(C)c1cccc2c1SCc1c(C(F)(F)F)nn(-c3ccc(S(N)(=O)=O)cc3)c1-2 [Example 11, 4-[1,4-Dihydro-6-isopropyl-3-(trifluoromethyl)-[1]benzothiopyrano[4,3-c]pyrazol-1-yl]benzenesulfonamide] | 52000 | > 100000
24 | NS(=O)(=O)c1ccc(-n2nc(C(F)(F)F)c3c2-c2ccccc2CS3)cc1 [Example 16, 4-[1,5-Dihydro-3-(trifluoromethyl)-[2]benzothiopyrano[4,3-c]pyrazol-1-yl]benzenesulfonamide] | < 100 | –
